Measured values as given in US20200123147A1, “THIAZOLE COMPOUNDS USEFUL AS PRMT5 INHIBITORS” (Bayer Aktiengesellschaft, priority 2017, published 2020).

Assays:
[1] = target: T1, PRMT5:MEP50 protein complex (Homo sapiens, UniProt O14744); test: In vitro assay 1: PRMT5 SPA assay ("EAA"); assay type: biochemical; settings: scintillation proximity assay, methylation of biotinylated H4(1-24) peptide, 3H-SAM, 60 min at 22° C.
T1 construct: FLAG (N); made in house; host or cells: Hi5 insect cells
From the text: In Vitro Assay 1: PRMT5 SPA Assay (“EAA”)
PRMT5 inhibitory activities of the compounds described in the present invention were quantified using a scintillation proximity assay (SPA) which measures methylation by the enzyme of a synthetic, biotinylated peptide corresponding to the N-terminal sequence of Histone H4 (a.a. 1-24). The peptide of sequence […]-K(Btn)-amide is commercially available (e.g. from Biosyntan) and will be herein referred to as H4(1-24). The PRMT5:MEP50 protein complex used in the assay was produced in house following standard protocols. Briefly, full length PRMT5 and MEP50 constructs respectively tagged with N-terminal FLAG and 6× His sequences were co-expressed in Hi5 insect cells, and the recombinant protein complex was purified by FLAG affinity and size exclusion chromatography.
In a typical assay 11 different concentrations of each compound (0.1 nM, 0.33 nM, 1.1 nM, 3.8 nM, 13 nM, 44 nM, 0.15 μM, 0.51 μM, 1.7 μM, 5.9 μM and 20 μM) were tested in duplicate within the same microtiter plate. To this end, 100-fold concentrated compound solutions (in DMSO) were previously prepared by serial dilution (1:3.4) of 2 mM stocks in a clear low volume 384-well source microtiter plate (Greiner Bio-One), from which 50 nl of compounds were transferred into a white low volume test microtiter plate from the same supplier. Subsequently, 2.5 μL PRMT5 in aqueous assay buffer [20 mM Bicine pH 8.0 (Alfa Aesar), 7.5 mM Tris(2-carboxyethyl) phosphine hydrochloride (TCEP, Sigma), 0.1% (w/v) bovine gamma globuline (BGG, Sigma), 0.002% (v/v) Tween-20 (Sigma)] were added to the compounds in the test plate to a final enzyme concentration of—typically—7.5 nM (this parameter was adjusted depending on the activity of the enzyme lot in order to be within the linear dynamic range of the assay). The samples were then incubated for 15 min at 22° C. to allow pre-equilibration of the putative enzyme-inhibitor complexes before the start of the methylation reaction, which was initiated by the addition of 2.5 μL 2-fold concentrated solution (in assay buffer) of “cold” S-Adenosyl-L-Methionine (SAM, Sigma, final concentration: 0.5 μM), tritiated 3H-SAM (Perkin Elmer, final concentration: 0.5 μM) and H4(1-24) peptide substrate (final concentration: 0.06 μM). The resulting mixture (5 μL final volume) was shortly centrifuged (2 min., 1500 rpm) and incubated at 22° C. during 60 min. Thereupon the reaction was stopped by adding 3 μL of Streptavidin PS SPA imaging beads (Perkin Elmer, final concentration of 0.375 μg/μL) and “cold” SAM (AK Scientific, 250 μM final concentration) for non-specific binding reduction. Plates containing the stopped reaction were sealed with transparent adhesive foil (Perkin Elmer), centrifuged (2 min., 1500 rpm), and further incubated either 1 h at 22° C. or overnight at 4° C. in order to allow the SPA signals to develop. Subsequently, the amount of product was evaluated by measuring the energy transfer from the β-particles emitted by the 3H-labeled substrate to the Europium scintillator co-polymerized in the polystyrene matrix of the PS imaging beads, using the standard settings for this purpose of a Viewlux (Perkin-Elmer) CCD plate imaging device (emission filter 613/55 (IFP).
The resulting scintillation counts were taken as indicator for the amount of methylated peptide per well. The data were normalised using two sets of control wells (typically 16 each) for high—(=enzyme reaction with DMSO instead of test compound=0%=minimum inhibition) and low—(=all assay components without enzyme=100%=maximum inhibition) PRMT5 activity. IC50 values were calculated by fitting the normalized inhibition data to a 4-parameter logistic equation using the “Screener” analysis software from Genedata.

[2] = system: PRMT5 (histone H4 Arg3 SDMA levels in MDA-MB-468 cells); test: In vitro assay 2: quantification of SDMA (symmetric dimethylarginine) expression levels (H4 Arg3) in cancer cells, High-Content Analysis; assay type: cell-based; settings: Homo sapiens, 72 h, SDMA histone H4 (Arg3) average signal intensity per cell
From the text: In Vitro Assay 2: Quantification of SDMA (Symmetric Dimethylarginine) Expression Levels (H4 Arg3) After Small Molecule Treatment of Cancer Cells
The SDMA-assay based on High-Content Analysis (HCA) enables the biological characterization of compounds inhibiting PRMT5. By this assay, substances are benchmarked on their cellular activity to modulate histone H4 Arg3 levels over broad inhibitor concentration ranges.
Cultivated cells of the human mammary gland tumor cell line MDA-MB-468 (ATCC HTB-132) were plated at a density of 2500 cells per well in a 384-well microtiter plate in 20 μL of Roswell Park Memorial Institute (RPMI) 1640 medium supplemented with 1% (v/v) glutamine, 1% (v/v) penicillin, 1% (v/v) streptomycin and 10% (v/v) fetal calf serum. After pre-incubation at 37° C. overnight, test compo unds solubilized in DMSO were added at various concentrations (0 μM, as well as in the range of 0.005 μM-30 μM; the final concentration of the solvent DMSO was 0.5% (v/v)). Cells were incubated at 37° C. for 72 h in the presence of test compounds. Thereafter, cells were fixed with 4% (v/v) paraformaldehyde in phosphate buffered saline (PBS) at room temperature for 1 h, permeabilized using 0.5% (v/v) Triton X™ 100 in PBS for 15 min and blocked with 1% (v/v) bovine serum albumin (BSA) in PBS for 30 min. In the following, cells were incubated with anti-dimethyl-histone H4 (Arg3) symmetric antibody (Millipore #07-947) at RT for 2 h. After a single washing step with blocking solution, cells were incubated with species-specific fluorescent conjugated secondary antibody Alexa Fluor™ 488 (Jackson Immuno Research #111-546-003) at RT for 2 h.
Image acquisition for cells was carried out using the confocal imaging system OPERA® (PerkinElmer). Images were captured using two channels: Hoechst 33342 stain (DNA) and Alexa Fluor™ 488 (SDMA staining); and were analyzed using the MetaXpress® software (Molecular Devices). Exposure times were chosen for individual experiments to prevent saturation and allow for quantification in the linear range. A minimum of 500 cells in 5 field views were analyzed per well using 10× water immersion objective with a two-fold binning.
The image analysis routine was developed in MetaXpress®. The standardized image-analysis module “Count Nuclei” and the images of the DNA-channel were used for nuclei segmentation. The segmented nuclei were filtered for size, shape and signal intensity to exclude possible apoptotic and non-viable cells along with metaphase nuclei. These phenotypes result in overestimated antibody signals, due to their strong chromatin compaction. For further processing, binary object masks were calculated from the segmented and positively selected nuclei. The binary masks served as templates to be superimposed over the images of the SDMA channel. The SDMA average signal intensity per cell was quantified for every image set. The assay raw data were further analyzed by four parameter logistic regression analysis using Genedata's Assay Analyzer® and Condoseo® software to determine the IC50 value for each tested compound.

T1 sequence (O14744 whole entry, species assumed): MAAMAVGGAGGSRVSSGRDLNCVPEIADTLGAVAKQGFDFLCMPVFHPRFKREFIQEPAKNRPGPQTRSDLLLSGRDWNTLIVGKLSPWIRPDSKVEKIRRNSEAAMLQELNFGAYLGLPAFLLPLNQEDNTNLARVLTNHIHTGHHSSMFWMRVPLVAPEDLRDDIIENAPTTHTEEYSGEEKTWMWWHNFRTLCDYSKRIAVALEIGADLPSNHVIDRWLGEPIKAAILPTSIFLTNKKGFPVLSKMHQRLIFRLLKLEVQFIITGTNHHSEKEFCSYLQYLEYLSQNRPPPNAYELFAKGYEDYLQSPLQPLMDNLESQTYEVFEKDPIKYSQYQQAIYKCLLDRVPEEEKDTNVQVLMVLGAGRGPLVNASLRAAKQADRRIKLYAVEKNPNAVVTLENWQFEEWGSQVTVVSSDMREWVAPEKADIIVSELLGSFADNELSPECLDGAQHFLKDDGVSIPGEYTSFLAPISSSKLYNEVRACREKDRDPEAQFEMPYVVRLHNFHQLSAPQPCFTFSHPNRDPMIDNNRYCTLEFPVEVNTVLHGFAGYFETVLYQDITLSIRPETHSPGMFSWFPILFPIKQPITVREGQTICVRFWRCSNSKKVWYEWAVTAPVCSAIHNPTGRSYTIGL
T1 sequence (Q9BQA1 whole entry partner, species assumed): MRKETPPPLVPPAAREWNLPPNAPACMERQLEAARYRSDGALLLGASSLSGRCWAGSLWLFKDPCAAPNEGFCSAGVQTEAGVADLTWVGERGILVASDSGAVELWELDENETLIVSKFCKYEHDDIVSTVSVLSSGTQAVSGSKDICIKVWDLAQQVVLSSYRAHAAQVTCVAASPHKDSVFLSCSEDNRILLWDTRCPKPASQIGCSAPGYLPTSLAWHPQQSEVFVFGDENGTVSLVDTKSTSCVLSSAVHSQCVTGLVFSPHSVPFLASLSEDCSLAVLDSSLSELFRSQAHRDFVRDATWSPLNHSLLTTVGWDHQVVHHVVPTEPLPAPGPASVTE

SMILES | IC50 [1] [nM] | IC50 [2] [µM]
Cn1ccc(NC(=O)c2csc(Nc3ccccc3)n2)n1 [Example 23, N-(1-Methyl-1H-pyrazol-3-yl)-2-(phenylamino)-1,3-thiazole-4-carboxamide] | 1610 | 23.2
CC(C)(C)c1cc(NC(=O)c2csc(Nc3ccccc3)n2)no1 [Example 3, N-(5-tert-Butyl-1,2-oxazol-3-yl)-2-(phenylamino)-1,3-thiazole-4-carboxamide] | 177 | 25.4
CC(C)(C)c1cc(NC(=O)c2csc(Nc3ccccn3)n2)no1 [Example 2, N-(5-tert-Butyl-1,2-oxazol-3-yl)-2-(pyridin-2-ylamino)-1,3-thiazole-4-carboxamide] | 78 | 2.45
CC(C)(C)c1cc(NC(=O)c2csc(Nc3ccc([N+](=O)[O-])cc3)n2)no1 [Example 13, N-(5-tert-Butyl-1,2-oxazol-3-yl)-2-[(4-nitrophenyl)amino]-1,3-thiazole-4-carboxamide] | 344 | 26.1
Cn1nc(NC(=O)c2csc(Nc3ccccc3)n2)cc1C(F)(F)F [Example 10, N-[1-Methyl-5-(trifluoromethyl)-1H-pyrazol-3-yl]-2-(phenylamino)-1,3-thiazole-4-carboxamide] | 238 | 27.9
CC(C)(C)c1cc(NC(=O)c2csc(Nc3ccc(Cl)cc3)n2)no1 [Example 4, N-(5-tert-Butyl-1,2-oxazol-3-yl)-2-[(4-chlorophenyl)amino]-1,3-thiazole-4-carboxamide] | 104 | 20.8
Cc1ccc(Nc2nc(C(=O)Nc3cc(C(C)(C)C)on3)cs2)cc1Cl [Example 18, N-(5-tert-Butyl-1,2-oxazol-3-yl)-2-[(3-chloro-4-methylphenyl)amino]-1,3-thiazole-4-carboxamide] | 819 | ≥ 30
CCN(CC)CCOc1cc(NC(=O)c2csc(Nc3ccccc3)n2)ccc1-c1ccc(C)cc1 [Example 22, N-{2-[2-(Diethylamino)ethoxy]-4′-methylbiphenyl-4-yl}-2-(phenylamino)-1,3-thiazole-4-carboxamide] | 941 | 23.4
O=C(NCCCCN1CCc2ccccc2C1)c1csc(Nc2ccc(Cl)cc2)n1 [Example 17, 2-[(4-Chlorophenyl)amino]-N-[4-(3,4-dihydroisoquinolin-2(1H)-yl)butyl]-1,3-thiazole-4-carboxamide] | 585 | 10
O=C(Nc1cc(C2CC2)n[nH]1)c1csc(Nc2ccccc2)n1 [Example 14, N-(3-Cyclopropyl-1H-pyrazol-5-yl)-2-(phenylamino)-1,3-thiazole-4-carboxamide] | 303 | 18.6
CC(C)(C)c1cc(NC(=O)c2csc(Nc3ccc(F)c(F)c3)n2)no1 [Example 45, N-(5-tert-Butyl-1,2-oxazol-3-yl)-2-[(3,4-difluorophenyl)amino]-1,3-thiazole-4-carboxamide] | 815 | 
CC(C)(C)c1cc(NC(=O)c2csc(Nc3cccc(Cl)c3)n2)no1 [Example 48, N-(5-tert-Butyl-1,2-oxazol-3-yl)-2-[(3-chlorophenyl)amino]-1,3-thiazole-4-carboxamide] | 2990 | 
CC(C)(C)c1cc(NC(=O)c2csc(Nc3ccccc3)n2)n[nH]1 [Example 16, N-(5-tert-Butyl-1H-pyrazol-3-yl)-2-(phenylamino)-1,3-thiazole-4-carboxamide] | 438 | 

Now from value to molecule:

IC50 [1] [nM] | IC50 [2] [µM] | SMILES
54.8 | ≥ 30 | O=C(Nc1cc(-c2ccccc2)[nH]n1)c1csc(Nc2ccc(Cl)cc2)n1 [Example 1, 2-[(4-Chlorophenyl)amino]-N-(5-phenyl-1H-pyrazol-3-yl)-1,3-thiazole-4-carboxamide]
775 | ≥ 30 | O=C(Nc1ccon1)c1csc(Nc2ccc(Cl)cc2)n1 [Example 19, 2-[(4-Chlorophenyl)amino]-N-(1,2-oxazol-3-yl)-1,3-thiazole-4-carboxamide]
295 | 22.1 | CC(C)(C)c1cc(NC(=O)c2csc(Nc3ccc(Cl)cc3)n2)n[nH]1 [Example 12, N-(5-tert-Butyl-1H-pyrazol-3-yl)-2-[(4-chlorophenyl)amino]-1,3-thiazole-4-carboxamide]
400 | ≥ 30 | CCn1ccc(NC(=O)c2csc(Nc3ccc(Cl)cc3)n2)n1 [Example 15, 2-[(4-Chlorophenyl)amino]-N-(1-ethyl-1H-pyrazol-3-yl)-1,3-thiazole-4-carboxamide]
971 | ≥ 30 | Cc1cc(NC(=O)c2csc(Nc3ccc(Cl)cc3)n2)no1 [Example 20, 2-[(4-Chlorophenyl)amino]-N-(5-methyl-1,2-oxazol-3-yl)-1,3-thiazole-4-carboxamide]
113 | ≥ 30 | O=C(Nc1cc(C2CC2)n[nH]1)c1csc(Nc2ccc(Cl)cc2)n1 [Example 5, 2-[(4-Chlorophenyl)amino]-N-(3-cyclopropyl-1H-pyrazol-5-yl)-1,3-thiazole-4-carboxamide]
111 | ≥ 30 | O=C(Nc1nc2ccccc2s1)c1csc(Nc2ccc(Cl)cc2)n1 [Example 8, N-(1,3-Benzothiazol-2-yl)-2-[(4-chlorophenyl)amino]-1,3-thiazole-4-carboxamide]
239 |  | COc1ccc2[nH]c(NC(=O)c3csc(Nc4ccc(Cl)cc4)n3)nc2c1 [Example 9, 2-[(4-Chlorophenyl)amino]-N-(5-methoxy-1H-benzimidazol-2-yl)-1,3-thiazole-4-carboxamide]
